Measurements: ChEMBL document CHEMBL1154011, “Discovery and structural analysis of Eph receptor tyrosine kinase inhibitors” (Bioorg Med Chem Lett, 2009)
The source made the active and inactive calls. The rule behind the calls is not given here.

Key:
[1] = biological target: Serine/threonine-protein kinase B-raf (Homo sapiens) (UniProt P15056); assay: Inhibition of Tel fused b-Raf expressed in mouse BA/F3 cells; format: cell-based; settings: BaF3
[2] = biological target: Ephrin type-A receptor 7 (Homo sapiens) (UniProt Q15375); assay: Inhibition of EphA7 at 10 uM
Ephrin type-A receptor 7 (Homo sapiens), sequence (Q15375 28-998 limits assumed): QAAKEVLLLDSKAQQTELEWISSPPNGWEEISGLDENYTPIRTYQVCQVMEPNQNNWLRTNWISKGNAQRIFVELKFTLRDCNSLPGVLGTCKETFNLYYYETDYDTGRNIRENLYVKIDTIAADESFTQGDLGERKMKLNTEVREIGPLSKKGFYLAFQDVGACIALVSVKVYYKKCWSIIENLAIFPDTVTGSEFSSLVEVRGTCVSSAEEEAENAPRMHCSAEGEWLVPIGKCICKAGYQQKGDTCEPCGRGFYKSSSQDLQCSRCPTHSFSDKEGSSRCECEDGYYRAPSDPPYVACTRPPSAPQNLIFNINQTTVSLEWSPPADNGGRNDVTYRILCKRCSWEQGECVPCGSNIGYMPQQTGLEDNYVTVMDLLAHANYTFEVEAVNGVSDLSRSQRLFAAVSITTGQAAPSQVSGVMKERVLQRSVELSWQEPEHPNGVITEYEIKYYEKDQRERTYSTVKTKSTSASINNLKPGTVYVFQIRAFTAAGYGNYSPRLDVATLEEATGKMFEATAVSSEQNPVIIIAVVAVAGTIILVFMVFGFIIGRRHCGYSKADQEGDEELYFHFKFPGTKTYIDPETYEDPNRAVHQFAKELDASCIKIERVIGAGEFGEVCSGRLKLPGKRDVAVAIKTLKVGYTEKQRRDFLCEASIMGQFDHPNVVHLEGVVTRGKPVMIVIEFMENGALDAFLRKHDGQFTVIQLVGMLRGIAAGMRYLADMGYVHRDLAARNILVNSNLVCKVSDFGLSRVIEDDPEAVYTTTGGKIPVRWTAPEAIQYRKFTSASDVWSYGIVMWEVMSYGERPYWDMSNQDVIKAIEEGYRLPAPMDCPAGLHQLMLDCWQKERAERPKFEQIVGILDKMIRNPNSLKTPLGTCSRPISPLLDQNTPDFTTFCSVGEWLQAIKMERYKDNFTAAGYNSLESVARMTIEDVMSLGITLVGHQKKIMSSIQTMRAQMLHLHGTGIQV

[3] = biological target: T1, Ephrin type-B receptor 1 (Homo sapiens) (UniProt P54762); assay: Inhibition of EphB1 at 10 uM
T1 sequence (whole entry): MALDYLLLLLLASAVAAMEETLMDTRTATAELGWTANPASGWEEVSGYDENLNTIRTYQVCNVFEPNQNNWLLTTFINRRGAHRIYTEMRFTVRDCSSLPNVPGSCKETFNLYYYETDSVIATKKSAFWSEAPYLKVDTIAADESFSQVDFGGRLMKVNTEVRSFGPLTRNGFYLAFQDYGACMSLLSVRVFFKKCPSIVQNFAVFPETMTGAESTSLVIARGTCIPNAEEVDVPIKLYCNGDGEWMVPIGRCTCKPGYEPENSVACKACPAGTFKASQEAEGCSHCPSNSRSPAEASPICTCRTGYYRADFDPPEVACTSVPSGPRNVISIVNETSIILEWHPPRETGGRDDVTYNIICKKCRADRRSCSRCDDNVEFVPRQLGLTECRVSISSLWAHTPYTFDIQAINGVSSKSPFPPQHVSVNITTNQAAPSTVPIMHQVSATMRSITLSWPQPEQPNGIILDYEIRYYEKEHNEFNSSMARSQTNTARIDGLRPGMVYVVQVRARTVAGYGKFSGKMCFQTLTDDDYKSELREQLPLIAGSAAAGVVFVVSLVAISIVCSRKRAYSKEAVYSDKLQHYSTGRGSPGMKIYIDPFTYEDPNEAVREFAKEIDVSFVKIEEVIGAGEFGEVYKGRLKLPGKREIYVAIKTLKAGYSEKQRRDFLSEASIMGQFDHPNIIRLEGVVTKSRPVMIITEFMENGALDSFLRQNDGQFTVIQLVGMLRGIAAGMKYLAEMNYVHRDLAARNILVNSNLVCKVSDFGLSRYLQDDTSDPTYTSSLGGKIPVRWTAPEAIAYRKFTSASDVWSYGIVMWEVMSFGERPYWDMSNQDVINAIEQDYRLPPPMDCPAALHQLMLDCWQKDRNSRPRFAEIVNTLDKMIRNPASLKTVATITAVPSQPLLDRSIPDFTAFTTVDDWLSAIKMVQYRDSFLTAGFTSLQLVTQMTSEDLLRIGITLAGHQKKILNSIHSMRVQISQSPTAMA

[4] = biological target: T2, Ephrin type-A receptor 6 (Homo sapiens) (UniProt Q9UF33); assay: Inhibition of EphA6 at 10 uM
T2 sequence (whole entry): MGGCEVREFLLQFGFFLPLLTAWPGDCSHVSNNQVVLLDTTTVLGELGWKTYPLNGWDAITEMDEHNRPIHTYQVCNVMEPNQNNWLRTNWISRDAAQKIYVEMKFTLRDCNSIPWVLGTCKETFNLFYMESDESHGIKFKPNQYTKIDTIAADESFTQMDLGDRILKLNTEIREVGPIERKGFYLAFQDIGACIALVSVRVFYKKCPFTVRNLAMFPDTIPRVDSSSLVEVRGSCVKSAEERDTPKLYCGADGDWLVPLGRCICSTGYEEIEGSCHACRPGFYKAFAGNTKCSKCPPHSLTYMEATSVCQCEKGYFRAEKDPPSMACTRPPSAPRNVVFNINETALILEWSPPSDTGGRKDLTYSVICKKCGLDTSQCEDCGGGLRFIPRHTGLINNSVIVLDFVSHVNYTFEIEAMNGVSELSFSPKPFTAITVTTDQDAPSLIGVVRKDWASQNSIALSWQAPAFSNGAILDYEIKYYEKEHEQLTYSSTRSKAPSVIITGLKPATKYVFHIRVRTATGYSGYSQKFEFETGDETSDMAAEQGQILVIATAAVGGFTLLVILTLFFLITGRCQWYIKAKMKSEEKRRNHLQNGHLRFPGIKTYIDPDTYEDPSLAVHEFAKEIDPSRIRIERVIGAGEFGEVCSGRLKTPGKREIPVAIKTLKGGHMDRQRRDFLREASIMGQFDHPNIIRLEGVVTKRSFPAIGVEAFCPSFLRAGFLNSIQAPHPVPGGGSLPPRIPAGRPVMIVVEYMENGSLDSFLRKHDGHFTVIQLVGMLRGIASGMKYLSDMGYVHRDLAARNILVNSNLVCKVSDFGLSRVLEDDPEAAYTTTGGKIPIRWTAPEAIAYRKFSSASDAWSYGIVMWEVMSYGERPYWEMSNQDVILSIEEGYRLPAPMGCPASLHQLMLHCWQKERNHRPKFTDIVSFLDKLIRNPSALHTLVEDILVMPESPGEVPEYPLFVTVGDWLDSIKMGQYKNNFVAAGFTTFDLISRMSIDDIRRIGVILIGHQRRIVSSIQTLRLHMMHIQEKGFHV

[5] = biological target: Tyrosine-protein kinase ABL1 (Homo sapiens) (UniProt P00519); assay: Inhibition of Abl expressed in mouse BA/F3 cells; format: cell-based; settings: BaF3
Tyrosine-protein kinase ABL1 (Homo sapiens), sequence (P00519 whole entry, the tested form may be a part): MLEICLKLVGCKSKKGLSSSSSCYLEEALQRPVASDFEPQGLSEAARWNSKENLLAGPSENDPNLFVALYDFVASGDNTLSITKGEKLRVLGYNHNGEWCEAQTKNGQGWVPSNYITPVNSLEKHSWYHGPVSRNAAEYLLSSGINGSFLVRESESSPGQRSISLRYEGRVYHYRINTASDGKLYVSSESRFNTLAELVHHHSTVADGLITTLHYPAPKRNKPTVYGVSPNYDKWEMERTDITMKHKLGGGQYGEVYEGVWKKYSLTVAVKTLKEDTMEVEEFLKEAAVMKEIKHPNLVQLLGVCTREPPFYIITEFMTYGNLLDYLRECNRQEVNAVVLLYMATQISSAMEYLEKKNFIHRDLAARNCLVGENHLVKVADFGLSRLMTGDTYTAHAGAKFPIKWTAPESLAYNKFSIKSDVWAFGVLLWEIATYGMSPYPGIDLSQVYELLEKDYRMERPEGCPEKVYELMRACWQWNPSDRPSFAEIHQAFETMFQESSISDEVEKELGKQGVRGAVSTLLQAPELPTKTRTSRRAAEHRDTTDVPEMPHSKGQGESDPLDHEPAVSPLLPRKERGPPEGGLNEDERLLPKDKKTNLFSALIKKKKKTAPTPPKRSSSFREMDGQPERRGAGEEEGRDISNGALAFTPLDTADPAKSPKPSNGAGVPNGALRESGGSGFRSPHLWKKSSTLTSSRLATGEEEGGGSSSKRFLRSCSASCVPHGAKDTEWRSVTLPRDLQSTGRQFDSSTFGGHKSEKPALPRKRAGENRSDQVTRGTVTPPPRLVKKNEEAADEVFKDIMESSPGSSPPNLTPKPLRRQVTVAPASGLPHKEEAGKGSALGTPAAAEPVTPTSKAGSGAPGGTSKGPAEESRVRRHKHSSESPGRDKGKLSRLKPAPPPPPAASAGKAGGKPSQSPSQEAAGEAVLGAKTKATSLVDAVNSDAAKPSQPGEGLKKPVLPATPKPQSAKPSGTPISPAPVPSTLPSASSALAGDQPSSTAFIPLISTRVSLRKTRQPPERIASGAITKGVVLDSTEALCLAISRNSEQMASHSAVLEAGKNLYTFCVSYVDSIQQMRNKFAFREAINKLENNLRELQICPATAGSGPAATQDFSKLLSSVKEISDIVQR

[6] = biological target: Bcr/Abl fusion protein (Homo sapiens) (UniProt P00519+P11274); assay: Inhibition of Bcr-Abl expressed in mouse BA/F3 cells; format: cell-based; settings: BaF3
BaF3 = assay: Inhibition of PDGFR expressed in mouse BA/F3 cells; format: cell-based
[7] = biological target: Mast/stem cell growth factor receptor Kit (Homo sapiens) (UniProt P10721); assay: Inhibition of c-kit expressed in mouse BA/F3 cells; format: cell-based; settings: BaF3
Mast/stem cell growth factor receptor Kit (Homo sapiens), sequence (P10721 whole entry): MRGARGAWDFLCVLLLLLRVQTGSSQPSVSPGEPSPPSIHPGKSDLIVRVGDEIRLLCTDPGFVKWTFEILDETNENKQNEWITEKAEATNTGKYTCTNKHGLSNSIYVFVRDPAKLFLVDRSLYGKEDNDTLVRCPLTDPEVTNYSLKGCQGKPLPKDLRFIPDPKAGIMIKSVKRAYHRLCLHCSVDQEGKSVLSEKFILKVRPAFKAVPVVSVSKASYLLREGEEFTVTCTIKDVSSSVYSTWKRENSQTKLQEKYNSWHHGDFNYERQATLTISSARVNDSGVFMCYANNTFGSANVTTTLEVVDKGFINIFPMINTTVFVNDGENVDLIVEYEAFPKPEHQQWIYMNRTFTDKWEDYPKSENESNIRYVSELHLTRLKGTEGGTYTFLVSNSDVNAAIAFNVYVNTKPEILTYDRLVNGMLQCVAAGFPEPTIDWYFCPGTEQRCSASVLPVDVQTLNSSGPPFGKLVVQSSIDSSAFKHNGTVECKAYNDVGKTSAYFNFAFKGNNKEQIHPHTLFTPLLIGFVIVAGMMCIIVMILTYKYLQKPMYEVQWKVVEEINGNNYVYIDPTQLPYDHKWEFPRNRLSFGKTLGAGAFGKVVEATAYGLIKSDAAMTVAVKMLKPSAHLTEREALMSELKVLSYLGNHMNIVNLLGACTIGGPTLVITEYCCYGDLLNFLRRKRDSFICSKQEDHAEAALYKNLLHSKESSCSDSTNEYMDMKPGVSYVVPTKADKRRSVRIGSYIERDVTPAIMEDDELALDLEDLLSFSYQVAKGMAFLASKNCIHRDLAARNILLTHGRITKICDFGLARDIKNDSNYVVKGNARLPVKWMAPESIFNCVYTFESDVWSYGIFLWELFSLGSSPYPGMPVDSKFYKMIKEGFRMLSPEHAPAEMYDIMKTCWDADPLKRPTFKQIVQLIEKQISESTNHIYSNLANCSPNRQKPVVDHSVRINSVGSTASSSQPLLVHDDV

[8] = biological target: Mitogen-activated protein kinase 11 (Homo sapiens) (UniProt Q15759); assay: Inhibition of p38beta at 10 uM
Mitogen-activated protein kinase 11 (Homo sapiens), sequence (Q15759 whole entry): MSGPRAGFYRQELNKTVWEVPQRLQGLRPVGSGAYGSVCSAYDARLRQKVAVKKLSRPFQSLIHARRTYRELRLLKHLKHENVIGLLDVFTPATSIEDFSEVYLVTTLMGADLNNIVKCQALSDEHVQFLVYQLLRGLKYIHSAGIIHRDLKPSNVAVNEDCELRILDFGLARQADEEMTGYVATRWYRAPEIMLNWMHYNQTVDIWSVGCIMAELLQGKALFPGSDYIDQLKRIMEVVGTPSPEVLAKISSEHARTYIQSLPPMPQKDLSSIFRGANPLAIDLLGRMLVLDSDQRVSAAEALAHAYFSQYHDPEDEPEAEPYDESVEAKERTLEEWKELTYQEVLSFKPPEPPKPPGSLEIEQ

[9] = biological target: Mitogen-activated protein kinase 14 (Homo sapiens) (UniProt Q16539); assay: Inhibition of p38alpha at 10 uM
Mitogen-activated protein kinase 14 (Homo sapiens), sequence (Q16539 whole entry, the tested form may be a part): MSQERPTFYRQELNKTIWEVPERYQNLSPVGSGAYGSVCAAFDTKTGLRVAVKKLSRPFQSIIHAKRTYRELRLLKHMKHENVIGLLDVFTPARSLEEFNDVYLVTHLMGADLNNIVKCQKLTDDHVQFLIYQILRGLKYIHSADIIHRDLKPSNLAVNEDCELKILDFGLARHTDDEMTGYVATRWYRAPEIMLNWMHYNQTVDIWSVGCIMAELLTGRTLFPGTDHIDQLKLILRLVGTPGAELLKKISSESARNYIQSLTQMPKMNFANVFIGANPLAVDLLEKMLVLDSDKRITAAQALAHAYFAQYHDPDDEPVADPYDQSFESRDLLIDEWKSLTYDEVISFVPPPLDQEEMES

[10] = biological target: Discoidin domain-containing receptor 2 (Homo sapiens) (UniProt Q16832); assay: Inhibition of DDR2 at 10 uM
[11] = biological target: Macrophage colony-stimulating factor 1 receptor (Homo sapiens) (UniProt P07333); assay: Inhibition of CSF1R at 10 uM
[12] = biological target: Epithelial discoidin domain-containing receptor 1 (Homo sapiens) (UniProt Q08345); assay: Inhibition of DDR1 at 10 uM
[13] = biological target: Tyrosine-protein kinase FRK (Homo sapiens) (UniProt P42685); assay: Inhibition of Frk at 10 uM
[14] = biological target: Ephrin type-B receptor 2 (Homo sapiens) (UniProt P29323); assay: Inhibition of EphB2 at 10 uM
[15] = biological target: Ephrin type-B receptor 3 (Homo sapiens) (UniProt P54753); assay: Inhibition of EphB3 at 10 uM
[16] = biological target: Platelet-derived growth factor receptor alpha (Homo sapiens) (UniProt P16234); assay: Inhibition of PDGFRalpha at 10 uM
[17] = biological target: Ephrin type-A receptor 2 (Homo sapiens) (UniProt P29317); assay: Inhibition of EphA2 at 10 uM
[18] = biological target: Mast/stem cell growth factor receptor Kit (Homo sapiens) (UniProt P10721); assay: Inhibition of Kit at 10 uM
[19] = biological target: Platelet-derived growth factor receptor beta (Homo sapiens) (UniProt P09619); assay: Inhibition of PDGFRbeta at 10 uM
[20] = biological target: RAF proto-oncogene serine/threonine-protein kinase (Homo sapiens) (UniProt P04049); assay: Inhibition of RAF1 at 10 uM
[21] = biological target: Serine/threonine-protein kinase B-raf (Homo sapiens) (UniProt P15056); assay: Inhibition of b-Raf at 100 uM
[22] = biological target: Ephrin type-A receptor 5 (Homo sapiens) (UniProt P54756); assay: Inhibition of EphA5 at 10 uM
[23] = biological target: Ephrin type-A receptor 8 (Homo sapiens) (UniProt P29322); assay: Inhibition of EphA8 at 10 uM
[24] = biological target: Tyrosine-protein kinase Lck (Homo sapiens) (UniProt P06239); assay: Inhibition of Lck at 10 uM
Tyrosine-protein kinase Lck (Homo sapiens), sequence (P06239 2-509 limits assumed): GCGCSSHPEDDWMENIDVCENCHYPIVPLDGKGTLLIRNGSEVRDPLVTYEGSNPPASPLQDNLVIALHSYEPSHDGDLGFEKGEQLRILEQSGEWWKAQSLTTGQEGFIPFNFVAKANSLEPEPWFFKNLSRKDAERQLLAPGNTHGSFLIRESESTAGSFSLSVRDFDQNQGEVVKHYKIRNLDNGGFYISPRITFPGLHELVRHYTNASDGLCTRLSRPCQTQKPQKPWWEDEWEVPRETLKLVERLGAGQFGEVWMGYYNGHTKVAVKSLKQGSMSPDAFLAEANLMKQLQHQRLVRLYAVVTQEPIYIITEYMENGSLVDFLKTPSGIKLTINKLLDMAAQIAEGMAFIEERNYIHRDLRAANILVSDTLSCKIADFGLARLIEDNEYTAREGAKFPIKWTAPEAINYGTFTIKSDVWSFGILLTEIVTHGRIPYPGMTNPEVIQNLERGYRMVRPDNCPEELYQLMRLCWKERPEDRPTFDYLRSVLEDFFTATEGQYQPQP

[25] = biological target: Fibroblast growth factor receptor 4 (Homo sapiens) (UniProt P22455); assay: Inhibition of FGFR4 expressed in mouse BA/F3 cells; format: cell-based; settings: BaF3
[26] = biological target: Fibroblast growth factor receptor 3 (Homo sapiens) (UniProt P22607); assay: Inhibition of FGFR3 expressed in mouse BA/F3 cells; format: cell-based; settings: BaF3
[27] = biological target: Fibroblast growth factor receptor 2 (Homo sapiens) (UniProt P21802); assay: Inhibition of FGFR2 expressed in mouse BA/F3 cells; format: cell-based; settings: BaF3

Serine/threonine-protein kinase B-raf (Homo sapiens), sequence (P15056 whole entry, the tested form may be a part): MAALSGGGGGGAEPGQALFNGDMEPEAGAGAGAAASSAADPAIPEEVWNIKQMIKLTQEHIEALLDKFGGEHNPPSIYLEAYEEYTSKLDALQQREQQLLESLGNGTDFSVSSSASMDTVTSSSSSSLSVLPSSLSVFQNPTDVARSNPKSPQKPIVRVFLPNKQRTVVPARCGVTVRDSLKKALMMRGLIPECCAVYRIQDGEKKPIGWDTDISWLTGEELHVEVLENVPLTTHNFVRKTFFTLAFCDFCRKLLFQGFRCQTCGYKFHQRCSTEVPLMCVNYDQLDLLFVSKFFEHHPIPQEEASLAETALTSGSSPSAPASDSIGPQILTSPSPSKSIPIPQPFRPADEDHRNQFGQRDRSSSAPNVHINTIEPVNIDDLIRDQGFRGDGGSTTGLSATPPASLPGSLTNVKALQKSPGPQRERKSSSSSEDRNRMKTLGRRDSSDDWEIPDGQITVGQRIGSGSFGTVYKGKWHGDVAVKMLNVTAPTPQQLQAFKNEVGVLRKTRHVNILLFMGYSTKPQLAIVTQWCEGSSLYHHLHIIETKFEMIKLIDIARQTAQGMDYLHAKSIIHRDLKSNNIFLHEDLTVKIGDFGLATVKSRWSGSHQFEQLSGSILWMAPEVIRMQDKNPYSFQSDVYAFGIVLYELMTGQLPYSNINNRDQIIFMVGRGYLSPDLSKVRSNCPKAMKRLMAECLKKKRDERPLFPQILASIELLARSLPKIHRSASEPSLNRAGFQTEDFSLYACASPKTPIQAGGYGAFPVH

Row | SMILES | inhibition [1] | inhibition [2] | inhibition [3] | inhibition [4] | inhibition [5] | inhibition [6] | inhibition (BaF3) | inhibition [7] | further results
1 | Cc1ccc(C(=O)Nc2cccc(C(F)(F)F)c2)cc1Nc1cncc(C(N)=O)c1 | inactive | inactive | inactive | inactive |  |  |  |  | 
2 | Cc1ccc(C(=O)Nc2cccc(C(F)(F)F)c2)cc1Nc1ccc2occc(=O)c2c1 |  | inactive | inactive | inactive | Active | Active | Active | Active | 
3 | CCN1CCN(Cc2ccc(NC(=O)c3ccc(C)c(NC(=O)c4cncc(-c5cccs5)c4)c3)cc2C(F)(F)F)CC1 |  |  | Active |  | Active | Active | Active | Active | inhibition [8]: Active; inhibition [9]: Active; inhibition [10]: Active; inhibition [11]: Active; inhibition [12]: Active; inhibition [13]: Active; inhibition [14]: Active; inhibition [15]: Active; inhibition [16]: Active; inhibition [17]: Active; inhibition [18]: Active; inhibition [19]: Active; inhibition [20]: Active; inhibition [21]: Active; inhibition [22]: Active; inhibition [23]: Active; inhibition [24]: Active
4 | Cc1cn(-c2cc(NC(=O)c3ccc(C)c(NC(=O)c4ccno4)c3)cc(C(F)(F)F)c2)cn1 | inactive | inactive | inactive | inactive |  |  |  |  | 
5 | Cc1ccc(C(=O)Nc2cccc(C(F)(F)F)c2)cc1Nc1[nH]cnc2ncnc1-2 |  |  |  |  | Active |  | Active | Active | inhibition [25]: Active; inhibition [26]: Active; inhibition [27]: Active
